Our source for the IC50 values is US12156880B2, “Heterocyclic RIP1 kinase inhibitors” (Rigel Pharmaceuticals, Inc., priority 2021, dated 2024).

One assay deals with U937 cells. Kind of assay: U937 cell necroptosis assay (TNFa + zVAD, CellTiter-Glo recovery). The note with it: Homo sapiens, U-937, 18 h, TNFa 2 ng/mL + zVAD-fmk, read-out: U937 Zvad TNF CTG Recovery, U937, TNFa + zVAD (IC50). The class given is cell-based. Here is the method: In this example, U937 and L929 cells were exposed to compounds of the present disclosure and a cell necroptosis assay was conducted to evaluate the compounds' activity against human RIP1 and murine RIP1.
U937 and L929 cells were obtained from the American Type Culture Collection (Manassas, VA, USA). Both cells were maintained in logarithmic growth phase in complete RPMI 1640 media (Sigma, ST Louis, MO, USA) supplemented with 10% fetal bovine serum (Sigma, ST Louis, MO, USA) at 37° C. with 5% CO2. For necroptosis assay, L929 cells were plated for 18 h in 100 μL/well medium at 10K cells/well in Costar 96-well black clear-bottom plates (Fisher Scientific, Hampton, NH, USA); U937 cells were plated on the day of the assay in 50 μL/well medium containing 60 uM zVAD-fmk (Lonza, Basel, Switzerland) at 50K cells/well. Medium from L929 cells were removed from the 96-well plates and replaced with 50 μL/well new medium containing 40 uM zVAD-fmk. Each compound of the present disclosure evaluated in this example was serially diluted in DMSO from 2.5 mM in 4-fold dilutions, and then diluted 1:125 in complete medium. 50 μL/well 2× of the compound was then added to the cells in the plates. The cells were pre-incubated with the compound for 1 hour at 37° C. with 5% CO2 and before addition of 10 μL/well 11×TNFa (Peprotech, Rocky Hill, NJ, USA) to give a final concentration of 2 ng/mL for TNFa. The relative amount of necroptosis cells was determined by luminescent using a Wallac Victor2 Luminometer (PerkinElmer, Waltham, MA, USA) and a CellTiter-Glo® Luminescent Cell Viability Reagent Assay (Promega, Madison, WI, USA) added per manufacturer instructions after 18 hours of TNFa stimulation at 37° C. with 5% CO2. This example establishes that embodiments of the compounds described herein have unexpectedly potent activity against human RIP1 and murine RIP1, which allows their assessment in in vivo mouse models of disease.

In a further assay the target is T1, RIPK1 (Homo sapiens, UniProt Q13546).
T1 sequence (Q13546 1-671): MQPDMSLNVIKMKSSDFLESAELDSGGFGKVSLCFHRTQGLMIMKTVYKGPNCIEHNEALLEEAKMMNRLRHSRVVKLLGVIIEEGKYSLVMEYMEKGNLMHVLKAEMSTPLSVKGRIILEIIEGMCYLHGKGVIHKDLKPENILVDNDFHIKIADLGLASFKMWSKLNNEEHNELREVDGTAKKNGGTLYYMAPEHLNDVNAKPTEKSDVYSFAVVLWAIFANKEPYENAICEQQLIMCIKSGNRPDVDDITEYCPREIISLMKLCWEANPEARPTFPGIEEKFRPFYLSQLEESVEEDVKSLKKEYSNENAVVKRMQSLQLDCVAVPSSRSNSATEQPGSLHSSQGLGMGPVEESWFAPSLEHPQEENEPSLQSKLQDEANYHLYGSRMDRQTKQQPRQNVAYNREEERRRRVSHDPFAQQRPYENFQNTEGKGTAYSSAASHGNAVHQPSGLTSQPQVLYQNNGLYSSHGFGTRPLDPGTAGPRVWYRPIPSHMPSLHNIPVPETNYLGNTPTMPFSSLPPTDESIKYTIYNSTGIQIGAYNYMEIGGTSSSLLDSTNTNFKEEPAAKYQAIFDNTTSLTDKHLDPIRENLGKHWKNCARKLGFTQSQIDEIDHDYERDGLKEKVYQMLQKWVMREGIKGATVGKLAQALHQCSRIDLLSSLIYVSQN
Kind of assay: RIPK1 ADP-Glo biochemical kinase assay. The note with it: read-out: RIPK1 ADP-Glo Kinase (IC50). As to the method: In this example, compounds of the disclosure were evaluated using a biochemical assay using the ADP-Glo™ technology.
ADP-Glo™ (Promega, Madison, WI, USA) reagents were thawed at ambient temperature. Kinase Detection Reagent was prepared by mixing kinase detection buffer with the lyophilized kinase detection substrate.
A […] stock volume of 5× Reaction Kinase Buffer was made by mixing 1000 μl of 1M MgCl2, 500 μl of 1M Tris-HCL pH7.4, 0.5 mg/ml (25 mg) of BSA, and 3475 μl of distilled H2O. A 3 ml 2× working stock volume of Reaction Kinase Buffer was made containing a final concentration of 100 μM DTT and 4 mM MnCl2.
Components of RIPK1 enzyme (Rigel Pharmaceuticals, South San Francisco, CA, USA) were thawed on ice. Diluted RIPK1 was prepared in 1× Kinase Reaction Buffer (diluted from 2× buffer) to 31 ng/well.
1.0 ul of diluted compound was added to a 384 well plate in duplicate. […] The final reaction volume was 5.0 μl.
The plate was quickly centrifuged and the reaction was incubated at 30° C. for 30 minutes. Adding 5 μl of ADP-Glo™ terminated the reaction. The plate was quickly centrifuged and the reaction was incubated at room temperature for 40 minutes. Kinase Detection Reagent was then added and incubated at room temperature for 30 minutes. The relative light unit (RLU) of kinase reaction was determined by luminescent (Luminescence 0.1 s) using a Wallac Victor2 Luminometer (PerkinElmer, Waltham, MA, USA).
In general terms: In ADP-Glo the light output rises with the ADP produced.

For `CN1C(=O)[C@@H](NC(=O)n2cc(Oc3cccc(F)n3)cn2)COc2ccc(C#CC(C)(C)O)cc21` [I-112, (S)-4-((6-Fluoropyridin-2-yl)oxy)-N-(7-(3-hydroxy-3-methylbut-1-yn-1-yl)-5-methyl-4-oxo-2,3,4,5-tetrahydrobenzo[b][1,4]oxazepin-3-yl)-1H-pyrazole-1-carboxamide], the IC50 (in general, the concentration at which inhibition is half-maximal) in the assay with U937 cells is 1.85 µM; at RIPK1, 80.4 nM. `CN1C(=O)[C@@H](NC(=O)n2cc(Cc3ncccn3)cn2)COc2ccc(Br)cc21` [I-30, (S)—N-(7-Bromo-5-methyl-4-oxo-2,3,4,5-tetrahydrobenzo[b][1,4]oxazepin-3-yl)-4-(pyrimidin-2-ylmethyl)-1H-pyrazole-1-carboxamide]: the half-maximal inhibitory concentration (IC50) in the assay with U937 cells is 7.21 µM; on RIPK1, 480 nM. As to `CN1C(=O)[C@@H](NC(=O)n2cc(Cc3ncccn3)cn2)COc2ccc(C#CC(C)(C)O)cc21` [I-31, (S)—N-(7-(3-Hydroxy-3-methylbut-1-yn-1-yl)-5-methyl-4-oxo-2,3,4,5-tetrahydrobenzo[b][1,4]oxazepin-3-yl)-4-(pyrimidin-2-ylmethyl)-1H-pyrazole-1-carboxamide], the IC50 came to 1.98 µM in the assay on U937 cells and 106 nM at RIPK1. With `CN1C(=O)[C@@H](NC(=O)c2cc(O)ccn2)COc2ccc(C#CC(C)(C)O)cc21` [I-86, (S)-4-hydroxy-N-(7-(3-hydroxy-3-methylbut-1-yn-1-yl)-5-methyl-4-oxo-2,3,4,5-tetrahydrobenzo[b][1,4]oxazepin-3-yl)picolinamide], in the assay with U937 cells, the IC50 is 59.6 µM.

For the compound `CN1C(=O)[C@@H](NC(=O)n2cc(Cc3cccnn3)cn2)COc2ccc(C#CC(C)(C)O)cc21` [I-17, (S)—N-(7-(3-Hydroxy-3-methylbut-1-yn-1-yl)-5-methyl-4-oxo-2,3,4,5-tetrahydrobenzo[b][1,4]oxazepin-3-yl)-4-(pyridazin-3-ylmethyl)-1H-pyrazole-1-carboxamide], the IC50 came out at 0.715 µM with U937 cells and 111 nM on RIPK1. For `CN1C(=O)[C@@H](NC(=O)n2cc(Cc3ccccn3)cn2)COc2ccc(C#CC(C)(C)O)cc21` [I-8, (S)—N-(7-(3-Hydroxy-3-methylbut-1-yn-1-yl)-5-methyl-4-oxo-2,3,4,5-tetrahydrobenzo[b][1,4]oxazepin-3-yl)-4-(pyridin-2-ylmethyl)-1H-pyrazole-1-carboxamide], the 50% inhibitory concentration (IC50) on RIPK1 was determined as 26.4 nM. With `Cc1noc(C)c1Cc1ccnc(C(=O)N[C@H]2COc3ccc(C#CC(C)(C)O)cc3N(C)C2=O)c1` [I-68, (S)-4-((3,5-dimethylisoxazol-4-yl)methyl)-N-(7-(3-hydroxy-3-methylbut-1-yn-1-yl)-5-methyl-4-oxo-2,3,4,5-tetrahydrobenzo[b][1,4]oxazepin-3-yl)picolinamide], the results for the IC50 in the assay on U937 cells and on RIPK1 were 7.16 µM and 467 nM, respectively. With `Cc1noc(C)c1Cc1ccnc(C(=O)N[C@H]2COc3ccc(C#CC4(O)COC4)cc3N(C)C2=O)c1` [I-69, (S)-4-((3,5-dimethylisoxazol-4-yl)methyl)-N-(7-((3-hydroxyoxetan-3-yl)ethynyl)-5-methyl-4-oxo-2,3,4,5-tetrahydrobenzo[b][1,4]oxazepin-3-yl)picolinamide], the concentration for half-maximal inhibition (IC50) was 2.83 µM with U937 cells and 326 nM on RIPK1. As to `CN1C(=O)[C@@H](NC(=O)n2cc(Oc3cccc(F)n3)cn2)COc2ccc(Br)cc21` [I-110, (S)—N-(7-Bromo-5-methyl-4-oxo-2,3,4,5-tetrahydrobenzo[b][1,4]oxazepin-3-yl)-4-((6-fluoropyridin-2-yl)oxy)-1H-pyrazole-1-carboxamide], the IC50 with U937 cells came out at 9.07 µM; on RIPK1, 6470 nM. Consider `CN1C(=O)[C@@H](NC(=O)c2cc(Oc3ccccn3)ccn2)COc2ccc(C#CC3(O)COC3)cc21` [I-129, (S)—N-(7-((3-hydroxyoxetan-3-yl)ethynyl)-5-methyl-4-oxo-2,3,4,5-tetrahydrobenzo[b][1,4]oxazepin-3-yl)-4-(pyridin-2-yloxy)picolinamide], for which the half-maximal inhibitory concentration (IC50) turned out to be 1.2 µM in the assay on U937 cells and 2280 nM at RIPK1. In the case of `CN1C(=O)[C@@H](NC(=O)n2cc(Cc3ccc(F)nc3F)cn2)COc2ccc(Br)cc21` [I-49, (S)—N-(7-Bromo-5-methyl-4-oxo-2,3,4,5-tetrahydrobenzo[b][1,4]oxazepin-3-yl)-4-((2,6-difluoropyridin-3-yl)methyl)-1H-pyrazole-1-carboxamide], the IC50 was 0.17 µM in the assay with U937 cells and 207 nM at RIPK1. As for `Cc1cccc(Cc2cnn(C(=O)N[C@H]3COc4ccc(Br)cc4N(C)C3=O)c2)n1` [I-19, (S)—N-(7-Bromo-5-methyl-4-oxo-2,3,4,5-tetrahydrobenzo[b][1,4]oxazepin-3-yl)-4-((6-methylpyridin-2-yl)methyl)-1H-pyrazole-1-carboxamide], the half-maximal inhibitory concentration (IC50) with U937 cells amounted to 0.264 µM. `CN1C(=O)[C@@H](NC(=O)c2cc(Oc3ccccn3)ccn2)COc2ccc(C#CC(C)(C)O)cc21` [I-128, (S)—N-(7-(3-hydroxy-3-methylbut-1-yn-1-yl)-5-methyl-4-oxo-2,3,4,5-tetrahydrobenzo[b][1,4]oxazepin-3-yl)-4-(pyridin-2-yloxy)picolinamide]: the IC50 with U937 cells worked out at 199 µM; on RIPK1 it was 2150 nM. With `CN1C(=O)[C@@H](NC(=O)c2cc(Oc3ccc(C(F)(F)F)nc3)ccn2)COc2ccc(C#CC(C)(C)O)cc21` [I-80, (S)—N-(7-(3-hydroxy-3-methylbut-1-yn-1-yl)-5-methyl-4-oxo-2,3,4,5-tetrahydrobenzo[b][1,4]oxazepin-3-yl)-4-((6-(trifluoromethyl)pyridin-3-yl)oxy)picolinamide], the IC50 in the assay with U937 cells stood at 7.31 µM; on RIPK1, 4530 nM. As for `CN1C(=O)[C@@H](NC(=O)n2cc(Cc3ccc(F)nc3)cn2)COc2ccc(Br)cc21` [I-24, (S)—N-(7-Bromo-5-methyl-4-oxo-2,3,4,5-tetrahydrobenzo[b][1,4]oxazepin-3-yl)-4-((6-fluoropyridin-3-yl)methyl)-1H-pyrazole-1-carboxamide], in the assay on U937 cells, the IC50 was found to be 0.0698 µM. For the compound `CN1C(=O)[C@@H](NC(=O)c2cc(O)ccn2)COc2ccc(C#CC3(O)COC3)cc21` [I-89, (S)-4-hydroxy-N-(7-((3-hydroxyoxetan-3-yl)ethynyl)-5-methyl-4-oxo-2,3,4,5-tetrahydrobenzo[b][1,4]oxazepin-3-yl)picolinamide], the IC50 with U937 cells came out at 28.2 µM.

For `CN1C(=O)[C@@H](NC(=O)n2cc(Cc3cccnn3)cn2)COc2ccc(Br)cc21` [I-25, (S)—N-(7-Bromo-5-methyl-4-oxo-2,3,4,5-tetrahydrobenzo[b][1,4]oxazepin-3-yl)-4-(pyridazin-3-ylmethyl)-1H-pyrazole-1-carboxamide], the concentration for half-maximal inhibition (IC50) in the assay with U937 cells is 4.12 µM.
